# Laboratory results from patent US11197933B2, “Polysubunit opioid prodrugs resistant to overdose and abuse” (Elysium Therapeutics, Inc., priority 2017, dated 2021).
# Tests used:
# [1] = target: T1, trypsin (Bos taurus, UniProt P00760); test: Inhibition of trypsin-catalyzed hydrolysis of BANA (percent BANA remaining vs. time); assay type: biochemical; settings: pH 7.4, 37° C.; for Ability to inhibit trypsin (result in words): increasing concentrations, BANA substrate
# T1 construct: gene PRSS1
# T1 sequence (P00760 24-246): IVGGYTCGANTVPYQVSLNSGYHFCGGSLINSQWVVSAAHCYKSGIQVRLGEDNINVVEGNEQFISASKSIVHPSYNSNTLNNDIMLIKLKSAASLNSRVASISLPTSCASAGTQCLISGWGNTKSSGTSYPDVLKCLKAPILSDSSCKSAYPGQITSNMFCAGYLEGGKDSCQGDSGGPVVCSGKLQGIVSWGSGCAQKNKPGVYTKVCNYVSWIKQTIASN
# Procedure: This example describes in vitro experiments with a compound of the disclosure to provide a mechanism of overdose protection.
# The effect of increasing concentrations of compounds II-D-11, II-D-23, II-D-71c and II-D-71b on the rate and extent of the trypsin-catalyzed hydrolysis of a commercially available trypsin substrate Nα-Benzoyl-L-arginine 4-nitroanilide hydrochloride (BANA) was evaluated in the presence of trypsin (2,000 BAEE activity) in a pH 7.4 phosphate buffer at 37° C. in vitro. Both buffer solution alone (i.e. no trypsin) and trypsin containing buffer solution (i.e. no test compounds) controls were run contemporaneously.
# [2] = Hydrocodone and naltrexone release from II-D-71c-NTX in 0.5M aqueous NaOH at 60° C. (tampering); assay type: physicochemical; settings: for Percent HC Released / Percent NTX Released: 60° C. incubation in 0.5M aqueous NaOH
# Procedure: H-D-71c-NTX was incubated in a strongly basic solution of 0.5M aqueous sodium hydroxide at 60° C. for 300 minutes. The solution was analyzed for the presence of both hydrocodone and naltrexone at specified time points using LC/MS analysis. […] The data from this study is presented graphically in FIG. 2.
# [3] = Rate of release of opioid agonist (key differentiating attributes, Table 5); settings: for Rate of Release of Opioid Against: in words (Fast/Slow); for half-life: read-out: Rate of Release of Opioid Against: T1/2
# From the text: (§1) As mentioned previously, a wide range of targeted oral pharmacokinetic profiles can be achieved by administering pharmaceutical compositions containing specific combinations of different polysubunit molecules to subjects. For example, the different polysubunit molecules contained in the composition may differ with regard to (i) the specific opioid agonists delivered, (ii) the rates at which the opioid agonist is delivered in vivo (i.e. to modify the oral pharmacokinetic profile of the delivered opioid), and (iii) the combined inhibitory potency of the GI enzyme inhibiting subunits [i.e. to modify the overdose protection profile and/or the prescribed dose strengths of the delivered opioid agonist(s)]. Table 5 below provides non-limiting examples of compounds of the invention with their key differentiating attributes. Table 6 discusses scenarios and rationales for using the compounds presented in Table 5 in combination with each other, in useful pharmaceutical formulations of the invention.
# [4] = target: T1, trypsin; test: Trypsin inhibitory potency (key differentiating attributes, Table 5); assay type: biochemical
# From the text: as §1
smiles,measurement,setting,value
COc1ccc2c3c1OC1C(OC(=O)N4CCC(C(=O)NCCCCC(NC(C)=O)C(=O)NCCOc5ccc(C(=O)Oc6ccc7cc(C(=N)N)ccc7c6)cc5)CC4CNC(=O)C(CCCNC(=N)N)NC(=O)CNC(C)=O)=CCC4C(C2)N(C)CCC314 [II-D-11],Percent BANA remaining,"[1]; 1 uM compound, 2 minutes",100%
same,Percent BANA remaining,"[1]; 1 uM compound, 13 minutes",39%
same,Percent BANA remaining,"[1]; 1 uM compound, 24 minutes",0%
same,Percent BANA remaining,"[1]; 1 uM compound, 80 minutes",0%
same,Percent BANA remaining,"[1]; 1 uM compound, 102 minutes",0%
same,Percent BANA remaining,"[1]; 1 uM compound, 119 minutes",0%
same,Percent BANA remaining,"[1]; 1 uM compound, 234 minutes",0%
same,Percent BANA remaining,"[1]; 10 uM compound, 2 minutes",100%
same,Percent BANA remaining,"[1]; 10 uM compound, 13 minutes",98%
same,Percent BANA remaining,"[1]; 10 uM compound, 24 minutes",96%
same,Percent BANA remaining,"[1]; 10 uM compound, 80 minutes",94%
same,Percent BANA remaining,"[1]; 10 uM compound, 102 minutes",93%
same,Percent BANA remaining,"[1]; 10 uM compound, 119 minutes",94%
same,Percent BANA remaining,"[1]; 10 uM compound, 234 minutes",87%
same,Percent BANA remaining,"[1]; 100 uM compound, 2 minutes",100%
same,Percent BANA remaining,"[1]; 100 uM compound, 13 minutes",98%
same,Percent BANA remaining,"[1]; 100 uM compound, 24 minutes",100%
same,Percent BANA remaining,"[1]; 100 uM compound, 80 minutes",99%
same,Percent BANA remaining,"[1]; 100 uM compound, 102 minutes",99%
same,Percent BANA remaining,"[1]; 100 uM compound, 119 minutes",99%
same,Percent BANA remaining,"[1]; 100 uM compound, 234 minutes",99%
same,Percent BANA remaining,"[1]; 1 mM compound, 2 minutes",100%
same,Percent BANA remaining,"[1]; 1 mM compound, 13 minutes",100%
same,Percent BANA remaining,"[1]; 1 mM compound, 24 minutes",99%
same,Percent BANA remaining,"[1]; 1 mM compound, 80 minutes",100%
same,Percent BANA remaining,"[1]; 1 mM compound, 102 minutes",100%
same,Percent BANA remaining,"[1]; 1 mM compound, 119 minutes",100%
same,Percent BANA remaining,"[1]; 1 mM compound, 234 minutes",100%
same,Ability to inhibit trypsin (result in words),[1],progressively inhibit trypsin in a concentration dependent manner
COc1ccc2c3c1OC1C(OC(=O)N4CCC(C(=O)NCCCCC(NC(=O)OCc5ccccc5)C(=O)NCCOc5ccc(C(=O)Oc6ccc7cc(C(=N)N)ccc7c6)cc5)CC4CNC(=O)C(CCCNC(=N)N)NC(=O)CNC(C)=O)=CCC4C(C2)N(C)CCC314 [II-D-23],Percent BANA remaining,"[1]; 1 uM compound, 2 minutes",100%
same,Percent BANA remaining,"[1]; 1 uM compound, 14 minutes",20%
same,Percent BANA remaining,"[1]; 1 uM compound, 24 minutes",11%
same,Percent BANA remaining,"[1]; 1 uM compound, 32 minutes",0%
same,Percent BANA remaining,"[1]; 1 uM compound, 70 minutes",0%
same,Percent BANA remaining,"[1]; 1 uM compound, 100 minutes",0%
same,Percent BANA remaining,"[1]; 1 uM compound, 145 minutes",0%
same,Percent BANA remaining,"[1]; 1 uM compound, 156 minutes",0%
same,Percent BANA remaining,"[1]; 1 uM compound, 247 minutes",0%
same,Percent BANA remaining,"[1]; 10 uM compound, 2 minutes",100%
same,Percent BANA remaining,"[1]; 10 uM compound, 14 minutes",98%
same,Percent BANA remaining,"[1]; 10 uM compound, 24 minutes",96%
same,Percent BANA remaining,"[1]; 10 uM compound, 32 minutes",98%
same,Percent BANA remaining,"[1]; 10 uM compound, 70 minutes",97%
same,Percent BANA remaining,"[1]; 10 uM compound, 100 minutes",95%
same,Percent BANA remaining,"[1]; 10 uM compound, 145 minutes",96%
same,Percent BANA remaining,"[1]; 10 uM compound, 156 minutes",96%
same,Percent BANA remaining,"[1]; 10 uM compound, 247 minutes",93%
same,Percent BANA remaining,"[1]; 100 uM compound, 2 minutes",100%
same,Percent BANA remaining,"[1]; 100 uM compound, 14 minutes",99%
same,Percent BANA remaining,"[1]; 100 uM compound, 24 minutes",100%
same,Percent BANA remaining,"[1]; 100 uM compound, 32 minutes",100%
same,Percent BANA remaining,"[1]; 100 uM compound, 70 minutes",100%
same,Percent BANA remaining,"[1]; 100 uM compound, 100 minutes",100%
same,Percent BANA remaining,"[1]; 100 uM compound, 145 minutes",100%
same,Percent BANA remaining,"[1]; 100 uM compound, 156 minutes",100%
same,Percent BANA remaining,"[1]; 100 uM compound, 247 minutes",100%
same,Percent BANA remaining,"[1]; 1 mM compound, 2 minutes",100%
same,Percent BANA remaining,"[1]; 1 mM compound, 14 minutes",99%
same,Percent BANA remaining,"[1]; 1 mM compound, 24 minutes",98%
same,Percent BANA remaining,"[1]; 1 mM compound, 32 minutes",99%
same,Percent BANA remaining,"[1]; 1 mM compound, 70 minutes",99%
same,Percent BANA remaining,"[1]; 1 mM compound, 100 minutes",98%
same,Percent BANA remaining,"[1]; 1 mM compound, 145 minutes",98%
same,Percent BANA remaining,"[1]; 1 mM compound, 156 minutes",97%
same,Percent BANA remaining,"[1]; 1 mM compound, 247 minutes",96%
same,Ability to inhibit trypsin (result in words),[1],progressively inhibit trypsin in a concentration dependent manner
COc1ccc2c3c1O[C@H]1C(OC(=O)N4CCC(C(=O)NCCCC[C@H](NC(=O)CCCN(C)C(=O)Oc5ccc6c7c5O[C@H]5C(=O)CC[C@@]8(O)[C@@H](C6)N(CC6CC6)CC[C@]758)C(=O)NCCNC(=O)Cc5ccc(OC(=O)c6ccc(NC(=N)N)cc6)cc5)CC4CNC(=O)[C@@H](CCCNC(=N)N)NC(=O)CNC(C)=O)=CC[C@H]4[C@@H](C2)N(C)CC[C@]314.O=C(O)C(F)(F)F.O=C(O)C(F)(F)F.O=C(O)C(F)(F)F.O=C(O)C(F)(F)F (stereo partly drawn) [II-D-71c-NTX],Release of hydrocodone and naltrexone on tampering (result in words),"[2]; 0.5M aqueous sodium hydroxide, 60° C., 300 minutes, LC/MS",release of the opioid agonist (e.g. hydrocodone) occurs concomitantly with the release of the opioid antagonist
same,Percent HC Released,[2]; time 0 (minutes),0%
same,Percent NTX Released,[2]; time 0 (minutes),0%
same,Percent HC Released,[2]; time 5 (minutes),2.52%
same,Percent NTX Released,[2]; time 5 (minutes),1.44%
same,Percent HC Released,[2]; time 10 (minutes),4.45%
same,Percent NTX Released,[2]; time 10 (minutes),2.0%
same,Percent HC Released,[2]; time 15 (minutes),6.27%
same,Percent NTX Released,[2]; time 15 (minutes),2.95%
same,Percent HC Released,[2]; time 20 (minutes),9.27%
same,Percent NTX Released,[2]; time 20 (minutes),3.69%
same,Percent HC Released,[2]; time 30 (minutes),13.99%
same,Percent NTX Released,[2]; time 30 (minutes),6.47%
same,Percent HC Released,[2]; time 60 (minutes),25.32%
same,Percent NTX Released,[2]; time 60 (minutes),14.41%
same,Percent HC Released,[2]; time 120 (minutes),37.9%
same,Percent NTX Released,[2]; time 120 (minutes),37.81%
same,Percent HC Released,[2]; time 300 (minutes),56.1%
same,Percent NTX Released,[2]; time 300 (minutes),60.25%
COc1ccc2c3c1OC1C(OC(=O)N(C)C(CNC(=O)[C@H](CCCNC(=N)N)NC(=O)CNC(C)=O)C(=O)NCCCC[C@H](NC(=O)OCc4ccccc4)C(=O)NCCOc4ccc(C(=O)Oc5cccc(NC(=N)N)c5)cc4)=CC[C@H]4[C@@H](C2)N(C)CC[C@]314 (stereo partly shown) [II-J-71b],Rate of Release of Opioid Against,[3],Slow
same,half-life,[3],~180 min
same,Trypsin Inhibitory Potency,[4],Low
COc1ccc2c3c1OC1C(OC(=O)N(C)C(CNC(=O)[C@H](CCCNC(=N)N)NC(=O)CNC(C)=O)C(=O)NCCCC[C@H](NC(=O)OCc4ccccc4)C(=O)NCCOc4ccc(C(=O)Oc5ccc(NC(=N)N)cc5)cc4)=CC[C@H]4[C@@H](C2)N(C)CC[C@]314 (stereo partly shown) [II-J-71c],Rate of Release of Opioid Against,[3],Slow
same,half-life,[3],~180 min
same,Trypsin Inhibitory Potency,[4],High
